Data from ChEMBL document CHEMBL1144820, “Bipinnatins K-Q, minor cembrane-type diterpenes from the West Indian Gorgonian Pseudopterogorgia kallos: isolation, structure assignment, and evaluation of biological activities” (J Nat Prod, 2008).

Tests used:
Plasmodium falciparum = experiment: Antimicrobial activity against chloroquine-resistant Plasmodium falciparum; type: functional, organism-based
[1] = system: Mycobacterium tuberculosis; experiment: Antimicrobial activity against Mycobacterium tuberculosis H37Rv at 128 ug/ml; type: functional
CCRF-CEM = experiment: Cytotoxicity against human CCRF-CEM cells; type: functional
MOLT-4 = experiment: Cytotoxicity against human MOLT4 cells; type: functional
RPMI-8226 = experiment: Cytotoxicity against human RPMI8226 cells; type: functional
SR = experiment: Cytotoxicity against human SR cells; type: functional
[2] = Inhibition of Aplysia californica nicotinic acetylcholine receptor

In the case of `C=C(C(=O)OC)[C@@H]1C[C@@H](OC(C)=O)C2=C[C@H](C[C@@]3(C)O[C@@H]3[C@@]3(O)C=C(C)[C@](O)(O3)[C@H]1OC(C)=O)OC2=O` [BIPINNATIN M], the IC50 (Plasmodium falciparum) is reported as over 10 µg/mL and the inhibition at 128 µg/mL [1] is reported as 20%.

With `C=C(C)[C@@H]1CCC2=C[C@H](C[C@@]3(C)O[C@@H]3[C@]3(O)C=C(C)C(=O)[C@H]1O3)OC2=O` [BIPINNATIN N] the IC50 (Plasmodium falciparum) was over 10 µg/mL.

`C=C(C=O)[C@H]1CC(=O)[C@@H](C(=O)OC)[C@@H]2O[C@@](C)(CC2=O)C[C@@H]2OC(=O)[C@]3(O[C@@H]23)[C@@H](OC(C)=O)C1` [BIPINNATIN Q] showed an IC50 (Plasmodium falciparum) of over 10 µg/mL, a GI50 (CCRF-CEM) of 5.8 µM and a GI50 (MOLT-4) of 4.2 µM. The GI50 (RPMI-8226) was 4.1 µM and the GI50 (SR) was 2.6 µM.

Compound `C=C(C=O)[C@H]1CC2=C(C(=O)OC)C=C(O2)[C@H]2O[C@]2(C)C[C@@H]2OC(=O)[C@]3(O[C@@H]23)[C@H](OC(C)=O)C1` [BIPINNATIN E] has an IC50 [2] of 0.23 µM.
